Data on 10 molecules can be found in ChEMBL document CHEMBL1151102, “Macrocyclic pyrrolizidine alkaloids from Senecio anonymus. Separation of a complex alkaloid extract using droplet counter-current chromatography” (J Nat Prod, 1988).

Values after ≈ are worked out from the molar mass of the structure shown.

The assay deals with A204. Briefly: Cytotoxicity against human A204 cells after 24 hrs by soft agar colony forming assay. Format: functional, cell-based. The settings on record: A204, 24 h.
`C/C=C1/C[C@@H](C)[C@@](C)(O)C(=O)OCC2=CCN3CC[C@@H](OC1=O)[C@@H]23` [SENECIONINE] registered an IC50 of 150 µg/mL (≈ 447 µM). As for `C[C@@H]1C[C@@]2(O[C@H]2C)C(=O)O[C@@H]2CCN(C)C/C=C(/COC(=O)[C@]1(C)O)C2=O` [OTOSENINE], the figure is 130 µg/mL (≈ 341 µM).

Molecule `C/C=C1\C[C@@H](C)[C@](O)(CO)C(=O)OCC2=CCN3CC[C@@H](OC1=O)[C@@H]23` [RETRORSINE] yielded an IC50 of 120 µg/mL (≈ 341 µM). Molecule `C[C@@H]1C/C(=C\CO)C(=O)O[C@@H]2CCN(C)C/C=C(/COC(=O)[C@]1(C)O)C2=O` [ANONAMINE] showed an IC50 of 153 µg/mL (≈ 401 µM).

Turning to `C/C=C1/C[C@@H](C)[C@](O)(CO)C(=O)OC/C2=C/CN(C)CC[C@@H](OC1=O)C2=O` [HYDROXYSENKIRKINE], the IC50 is 360 µg/mL (≈ 944 µM). As for `C/C=C1\C[C@@H](C)[C@@](C)(O)C(=O)OC/C2=C/CN(C)CC[C@@H](OC1=O)C2=O` [SENKIRKINE], the figure is 260 µg/mL (≈ 711 µM); as for `C/C=C1/C[C@@H](C)[C@@](C)(O)C(=O)OC/C2=C/CN(C)CC[C@@H](OC1=O)C2=O` [NEOSENKIRKINE], 221 µg/mL (≈ 605 µM); as for `C/C=C1/C[C@@H](C)[C@@](C)(O)C(=O)OCC2=CC[N+]3([O-])CC[C@@H](OC1=O)[C@@H]23` (stereo not given in full) [SENECIONINE N-OXIDE], 150 µg/mL (≈ 427 µM). In the case of `C/C=C1\C[C@@H](C)[C@@](C)(O)C(=O)OCC2=CCN3CC[C@@H](OC1=O)[C@@H]23` [INTEGERRIMINE] it was 120 µg/mL (≈ 358 µM); in that of `C[C@H]1C(=O)O[C@@H]2CCN3CC=C(COC(=O)[C@](C)(O)[C@]1(C)O)[C@H]23` [MONOCROTALINE], 316 µg/mL (≈ 971 µM).

Broadly, the IC50 is the concentration needed to halve the response being measured.
